In patent publication US20110237538A1, “TREATMENT OF LYSOSOMAL STORAGE DISORDERS AND OTHER PROTEOSTATIC DISEASES” (SUMMIT CORPORATION PLC, priority 2008, published 2011):

Molecular target: T1, wild type (wt) lysosomal alpha-glucosidase (Homo sapiens, UniProt P10253)
T1 construct: The lysates were used as a source for wild type (wt) lysosomal alpha-glucosidase; endogenous in cells; host or cells: HL60 (ECACC No. 98070106) lysate
Assay: alpha-glucosidase activity assay in HL60 lysate (4MU-α-D-glc);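 note: fluorometric rate of 4MU product release read at 360 nm excitation and 450 nm emission, reactions run at 37 °C in citric phosphate buffer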
Format: biochemical
Conditions: at a concentration of 100 uM, 0.5 mM 4MU-α-D-glc, pH 4.5

Row | inhibition at 100 µM [%] | Structure (SMILES)
1 | > 50 | OCC1OC(O[C@H]2CN3C[C@H](O)[C@@H](O)[C@H](O)[C@H]3[C@H]2O)C(O)C(O)C1O (stereo partly drawn) [Compound 41, (1R,2S,6S,7R,8R,8aS)-2-(3,4,5-trihydroxy-6-(hydroxymethyl)tetrahydro-2H-pyran-2-yloxy)octahydroindolizine-1,6,7,8-tetraol]
2 | > 50 | CCCCN1C[C@H](O)[C@H](O)[C@@H]1[C@@H](O)[C@H](O)[C@H](O)CO [Compound 531, (1R,2S,3R)-1-((2R,3R,4S)-1butyl-3,4-dihydroxypyrrolidin-2-yl)butane-1,2,3,4-tetraol]
3 | > 50 | C[N+]1(C)C[C@@H](O)[C@H](O)[C@H]1C(=O)[O-] [Compound 80, (2S,3R,4R)-3,4-dihydroxy-1,1-dimethylpyrrolidinium-2-carboxylate]
4 | > 50 | OC[C@@H]1NC[C@@H](O)[C@H](O)[C@H]1O [Compound 221, (2S,3S,4S,5R)-2-(hydroxymethyl)piperidine-3,4,5-triol]
5 | > 50 | C[C@H]1N[C@H](CO)[C@@H](O)[C@H](O)[C@H]1O [Compound 51, (2R,3R,4R,5S,6R)-2-(hydroxymethyl)-6-methylpiperidine-3,4,5-triol]
6 | > 50 | OCC1OC(O[C@H]2CN[C@H](CO)[C@@H](O)[C@@H]2O)C(O)C(O)C1O (stereo partly drawn) [Compound 121, 2-((3S,4S,5R,6R)-4,5-dihydroxy-6-(hydroxymethyl)piperidin-3-yloxy)-6-(hydroxymethyl)tetrahydro-2H-pyran-3,4,5-triol]
7 | > 50 | O=C(O)CN1C[C@H](O)[C@@H](O)[C@H](O)[C@H]1CO [Compound 214, 2-((2R,3R,4R,5S)-3,4,5-trihydroxy-2-(hydroxymethyl)piperidin-1-yl)acetic acid]
8 | > 50 | OCC1OC(O[C@H]2[C@H](O)[C@@H](CO)N[C@@H]2CO)C(O)C(O)C1O (stereo partly drawn) [Compound 79, 2-((2R,3R,4R,5R)-4-hydroxy-2,5-bis(hydroxymethyl)pyrrolidin-3-yloxy)-6-(hydroxymethyl)tetrahydro-2H-pyran-3,4,5-triol]
9 | > 50 | CCCC[C@H]1N[C@H](CO)[C@@H](O)[C@@H](O)[C@@H]1O [Compound 488, (2R,3R,4S,5R,6R)-2-butyl-6-(hydroxymethyl)piperidine-3,4,5-triol]
10 | > 50 | O=C1N[C@H](CO)[C@H](O)[C@@H](O)[C@@H]1O [Compound 446, (3S,4R,5S,6R)-3,4,5-trihydroxy-6-(hydroxymethyl)piperidin-2-one]
11 | > 50 | CCCCN1C[C@H](O)[C@@H](O)[C@H](O)[C@H]1CO [Compound 118, (2R,3R,4R,5S)-1-butyl-2-(hydroxymethyl)piperidine-3,4,5-triol]
12 | > 50 | OCCCCN1C[C@H](O)[C@@H](O)[C@H](O)[C@H]1CO [Compound 276, (2R,3R,4R,5S)-1-(4-hydroxybutyl)-2-(hydroxymethyl)piperidine-3,4,5-triol]
13 | > 50 | CCCC(=O)O[C@H]1CN2CC[C@H](O)C2[C@@H](O)[C@@H]1O (stereo partly drawn) [Compound 46, (1S,6S,7S,8R)-1,7,8-trihydroxyoctahydroindolizin-6-yl butyrate]
14 | > 50 | CCCCN1CCC[C@@H](CO)C1 [Compound 741, (R)-(1-butylpiperidin-3-yl)methanol]
15 | > 50 | CCCC[C@@H]1N[C@@H](CO)[C@H](O)[C@H]1O [Compound 728, (2S,3S,4S,5S)-2-butyl-5-(hydroxymethyl)pyrrolidine-3,4-diol]
16 | > 50 | OCC1OC(OC[C@H]2NC[C@H](O)[C@@H](O)[C@@H]2O)C(O)C(O)C1O (stereo partly drawn) [Compound 78, (2R,3R,4R,5S)-2-((3,4,5-trihydroxy-6-(hydroxymethyl)tetrahydro-2H-pyran-2-yloxy)methyl)piperidine-3,4,5-triol]
17 | > 50 | C[C@@]1(CO)NC[C@H](O)[C@H]1O [Compound 501, (2S,3S,4S)-2-(hydroxymethyl)-2-methylpyrrolidine-3,4-diol]
18 | > 50 | OC[C@@H]1[C@@H](O)[C@H](O)[C@@H](O)CN1CCN1CCOCC1 [Compound 509, (2R,3R,4R,5S)-2-(hydroxymethyl)-1-(2-morpholinoethyl)piperidine-3,4,5-triol]
19 | > 50 | COCCOCCN1C[C@H](O)[C@@H](O)[C@H](O)[C@H]1CO [Compound 725, (2R,3R,4R,5S)-2-(hydroxymethyl)-1-(2-(2-methoxyethoxy)ethyl)piperidine-3,4,5-triol]
20 | > 50 | OC[C@@H]1N[C@@H](CO)[C@H](O)[C@H]1O [Compound 729, (2S,3S,4S,5S)-2,5-bis(hydroxymethyl)pyrrolidine-3,4-diol]
21 | > 50 | OC[C@@H]1[C@@H](O)[C@H](O)[C@@H](O)CN1Cc1ccccc1 [Compound 510, (2R,3R,4R,5S)-1-benzyl-2-(hydroxymethyl)piperidine-3,4,5-triol]
22 | > 50 | CC[C@@H]1N[C@@H](CO)[C@H](O)[C@@H](O)[C@@H]1O [Compound 23, (2S,3R,4S,5S,6S)-2-ethyl-6-(hydroxymethyl)piperidine-3,4,5-triol]
23 | > 50 | OC[C@@H]1NC[C@](O)(CO)[C@H]1O [Compound 202, (2S,3S,4S)-2,4-bis(hydroxymethyl)pyrrolidine-3,4-diol]
24 | > 50 | C[C@H]1NC[C@H](O)[C@@H](O)[C@@H]1O [Compound 388, (2R,3R,4R,5S)-2-methylpiperidine-3,4,5-triol]
25 | > 50 | CN1[C@H](CO)[C@@H](O)[C@H](O)[C@H]1CO [Compound 515, (2R,3R,4R,5R)-2,5-bis(hydroxymethyl)-1-methylpyrrolidine-3,4-diol]
26 | > 50 | CC[C@@H]1N[C@@H](CO)[C@H](O)[C@H]1O [Compound 732, (2S,3S,4S,5S)-2-ethyl-5-(hydroxymethyl)pyrrolidine-3,4-diol]
27 | > 50 | OC[C@H]1[C@H](O)[C@@H](O)CN1Cc1ccccc1 [Compound 500, (2S,3S,4S)-1-benzyl-2-(hydroxymethyl)pyrrolidine-3,4-diol]
28 | > 50 | OC[C@H]1NC[C@H](O)[C@@H](O)[C@@H]1O [Compound 193, (2R,3R,4R,5S)-2-(hydroxymethyl)piperidine-3,4,5-triol]
29 | > 50 | OC[C@@H](O)[C@@H]1NC[C@](O)(CO)[C@H]1O [Compound 179, (2S,3S,4S)-2-((S)-1,2-dihydroxyethyl)-4-(hydroxymethyl)pyrrolidine-3,4-diol]

Row | Structure (SMILES) | inhibition at 100 µM [%]
30 | C[C@@H]1CC[C@@H]2[C@H](O)[C@H](O)[C@@H](CO)N12 [Compound 150, (1S,2R,3R,5R,7aR)-3-(hydroxymethyl)-5-methylhexahydro-1H-pyrrolizine-1,2-diol] | > 50
31 | O[C@H]1[C@H](O)[C@@H](O)CN2C[C@H](O)[C@@H](O)[C@H]12 [Compound 352, (1S,2S,6S,7R,8R,8aR)-octahydroindolizine-1,2,6,7,8-pentaol] | > 50
32 | OC[C@@H]1[C@@H](O)[C@H](O)[C@H]2[C@H](O)[C@@H](O)CN21 [Compound 137, (1R,2R,3R,6S,7S,7aR)-3-(hydroxymethyl)hexahydro-1H-pyrrolizine-1,2,6,7-tetraol] | > 50
